Values of other authors, collected in patent US10300068B2, “Method of treating insomnia” (priority 2015, dated 2019).

Key:
intestinal P-gp = intestinal P-gp (Homo sapiens, UniProt P08183); conditions: concomitant administration with digoxin
[1] = 40 mg non-elderly, 30 mg elderly; mild to moderate COPD, n=25
[2] = co-administered with alcohol
[3] = Day 4, once-daily 40 mg, mild to moderate obstructive sleep apnea, n=26; 90% CI 0.22 to 5.09
[4] = patients, assessed by questionnaire
[5] = 20 mg, healthy adults
[6] = obese vs non-obese patients, women vs men
[7] = tested on: epicardial coronary arteries; conditions: patients with coronary artery disease

Sequence of intestinal P-gp (P08183 whole entry): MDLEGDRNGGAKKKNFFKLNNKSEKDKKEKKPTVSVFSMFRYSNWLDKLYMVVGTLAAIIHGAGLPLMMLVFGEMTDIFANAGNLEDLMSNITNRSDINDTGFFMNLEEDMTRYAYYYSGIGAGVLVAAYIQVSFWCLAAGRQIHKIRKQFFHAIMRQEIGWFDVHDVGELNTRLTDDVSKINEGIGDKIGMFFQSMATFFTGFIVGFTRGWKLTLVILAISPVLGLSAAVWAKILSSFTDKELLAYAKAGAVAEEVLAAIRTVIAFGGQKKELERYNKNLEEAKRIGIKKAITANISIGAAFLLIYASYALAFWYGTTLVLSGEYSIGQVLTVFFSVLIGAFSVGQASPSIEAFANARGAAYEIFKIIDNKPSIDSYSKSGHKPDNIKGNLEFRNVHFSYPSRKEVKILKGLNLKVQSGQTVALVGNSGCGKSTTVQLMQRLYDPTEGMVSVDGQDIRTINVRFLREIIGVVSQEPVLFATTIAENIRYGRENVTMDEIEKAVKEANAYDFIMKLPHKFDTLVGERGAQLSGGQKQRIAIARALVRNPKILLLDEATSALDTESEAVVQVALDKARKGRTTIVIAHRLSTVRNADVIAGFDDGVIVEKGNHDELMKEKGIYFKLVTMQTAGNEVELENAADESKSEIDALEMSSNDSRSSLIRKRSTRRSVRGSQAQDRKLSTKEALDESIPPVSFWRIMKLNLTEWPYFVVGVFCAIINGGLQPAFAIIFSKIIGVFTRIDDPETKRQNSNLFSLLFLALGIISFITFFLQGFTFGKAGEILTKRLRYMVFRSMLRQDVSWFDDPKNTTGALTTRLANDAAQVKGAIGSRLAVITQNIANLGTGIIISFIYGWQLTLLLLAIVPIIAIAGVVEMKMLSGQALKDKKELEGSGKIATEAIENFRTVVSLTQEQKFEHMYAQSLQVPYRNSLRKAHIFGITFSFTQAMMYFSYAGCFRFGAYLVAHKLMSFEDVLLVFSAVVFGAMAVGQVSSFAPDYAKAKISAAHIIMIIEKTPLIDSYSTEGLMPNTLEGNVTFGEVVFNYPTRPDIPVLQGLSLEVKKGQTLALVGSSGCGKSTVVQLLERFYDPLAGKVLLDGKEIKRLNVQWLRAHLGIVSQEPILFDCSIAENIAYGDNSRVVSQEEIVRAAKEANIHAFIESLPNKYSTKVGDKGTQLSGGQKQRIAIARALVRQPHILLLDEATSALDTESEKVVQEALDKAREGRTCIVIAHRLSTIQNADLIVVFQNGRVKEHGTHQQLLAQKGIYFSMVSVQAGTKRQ

Compound	digoxin levels (intestinal P-gp)	physical dependence with prolonged use (completed clinical trials)	withdrawal symptoms after discontinuation (human, in vivo)	respiratory depressant effects as measured by oxygen saturation [1]	pharmacokinetics of BELSOMRA [2]	psychomotor impairment [2]	mean Apnea/Hypopnea Index treatment difference (suvorexant-placebo) [3]	suicidal ideation [4]	driving ability [5]	exposure [6]	relaxation of epicardial coronary arteries [7]
Cc1ccc(-n2nccn2)c(C(=O)N2CCN(c3nc4cc(Cl)ccc4o3)CC[C@H]2C)c1 [BELSOMRA, suvorexant]	slightly increased	no evidence for physical dependence	no reported withdrawal symptoms	no respiratory depressant effects	no alteration	additive psychomotor impairment	2.7	dose-dependent increase	impaired in some individuals	increased	–
CCCc1nn(C)c2c(=O)[nH]c(-c3cc(S(=O)(=O)N4CCN(C)CC4)ccc3OCC)nc12 [sildenafil]	–	–	–	–	–	–	–	–	–	–	relax epicardial coronary arteries
